Assay results taken from ChEMBL document CHEMBL1137133, “Defining determinant molecular properties for the blockade of the apamin-sensitive SKCa channel in guinea-pig hepatocytes: the influence of polarizability and molecular geometry” (Bioorg Med Chem Lett, 2004).
pIC50, pKi: −log10 of the molar value.

Columns and labels:
[1] = Inhibition of apamin-sensitive SKCa channel of guinea-pig hepatocytes; assay type: cell-based, Cavia porcellus; settings: hepatocyte
[2] = Inhibition of I-apamin-sensitive SKCa channel of guinea-pig hepatocytes; 0.14+/-0.01; assay type: cell-based, Cavia porcellus; settings: hepatocyte

Structure (SMILES)	pIC50 [1]	pKi [2]
COc1cc2c3cc1Oc1cc(ccc1O)C[C@@H]1c4c(cc(OC)c(O)c4Oc4ccc(cc4)C[C@@H]3N(C)CC2)CC[N+]1(C)C	5.52	–
C[N+](C)(C)CCCCCCCCCC[N+](C)(C)C [DECAMETHONIUM]	3.35	–
CC(=O)O[C@H]1C[C@@H]2CC[C@@H]3[C@H](CC[C@@]4(C)[C@H]3C[C@H]([N+]3(C)CCCCC3)[C@@H]4OC(C)=O)[C@@]2(C)C[C@@H]1[N+]1(C)CCCCC1 [PANCURONIUM]	5.46	–
C=C[C@H]1CN2CC[C@H]1C[C@@H]2[C@@H](O)c1ccnc2ccc(OC)cc12 [QUINIDINE]	3.62	–
O=C1C[C@@H]2OCC=C3CN4CC[C@]56c7ccccc7N1[C@H]5[C@H]2[C@H]3C[C@H]46 [STRYCHNINE]	3.72	–
CCN(CC)CCCC(C)Nc1c2ccc(Cl)cc2nc2ccc(OC)cc12 (stereo not given) [QUINACRINE]	4.14	–
COc1cc(NC(C)CCCN)c2ncccc2c1 (stereo not given) [PRIMAQUINE]	3.01	–
C=C[C@H]1CN2CC[C@H]1C[C@@H]2[C@@H](O)c1ccnc2ccccc12 [CINCHONINE]	3.43	–
c1ccc2c(c1)c1cc[n+]2Cc2ccc(cc2)Cc2ccc(cc2)C[n+]2ccc(c3ccccc32)NCCCCCCCCCCN1 [UCL-1530]	5.59	–
CC[N+](CC)(CC)CCOc1cccc(OCC[N+](CC)(CC)CC)c1OCC[N+](CC)(CC)CC [GALLAMINE]	4.92	–
C[N+](C)(C)CCCCCC[N+](C)(C)C [HEXAMETHONIUM CHLORIDE]	2.70	–
c1ccc2c(c1)c1cc[n+]2CCCCC[n+]2ccc(c3ccccc32)NCCCCCN1	–	9.85
Nc1c2ccccc2nc2ccccc12 [AMINACRINE]	3.92	–
Cc1cc(N)c2ccccc2[n+]1CCCCCCCCCC[n+]1c(C)cc(N)c2ccccc21 [DEQUALINIUM CHLORIDE]	5.77	–
C=CC1CN2CCC1CC2[C@H](O)c1ccnc2ccccc12 (stereo not given in full)	3.38	–
CC(=O)O[C@H]1C[C@@H]2CC[C@@H]3[C@H](CC[C@@]4(C)[C@H]3C[C@H]([N+]3(C)CCCCC3)[C@@H]4OC(C)=O)[C@@]2(C)C[C@@H]1N1CCCCC1 [VECURONIUM]	5.35	–
CCCCOc1cc(C(=O)NCCN(CC)CC)c2ccccc2n1 [DIBUCAINE]	3.33	–
C=C[C@H]1CN2CC[C@H]1C[C@H]2[C@H](O)c1ccnc2ccc(OC)cc12 [QUININE]	3.82	–
COc1ccc(CC2c3cc(OC)c(OC)cc3CC[N+]2(C)CCC(=O)OCCCCCOC(=O)CC[N+]2(C)CCc3cc(OC)c(OC)cc3C2Cc2ccc(OC)c(OC)c2)cc1OC (stereo not given)	5.52	–
CC[N+](CC)(CC)CC [TETRYLAMMONIUM]	2.10	–
